Holding throughout (format): in vivo
Experiment [1] deals with Luciferase-containing B16 melanoma cells. The experiment can be described thus: B16 melanoma tumor growth in mice (bioluminescence imaging, tumor volume). On the procedure: In the melanoma model, age- and sex-matched VAP-1 deficient and wt C57/B16 mice were used (Stolen, C. M., F. Marttila-Ichihara, K. Koskinen, G. G. Yegutkin, R. Turja, P. Bono, M. Skurnik, A. Hanninen, S. Jalkanen, and M. Salmi. 2005. Immunity 22:105-115). Luciferase-containing B16 melanoma cells were purchased from Xenogen. Tumor cells (4×10^5 in 200 μl) were injected subcutaneously into the flanks of isoflurane anesthesized mice. Immediately thereafter, a substrate for the luciferase (D-luciferin sodium salt, Synchem, Kassel, Germany; 150 mg/kg i.p.) was injected, and 10 min later the light generated was recorded using bioluminescence imaging (IVIS 50 workstation, Xenogen). The signal intensities were quantified as the photon counts using the Living Image software (Xenogen). […] The growth of tumors was then followed for 10 d, and at the indicated time points, the animals were re-subjected to the bioluminescence imaging. The diameter of the tumor was also measured using an electronic caliber (Mitutoyo, Japan). The volume of the tumor was approximated using the formula: 0.5×(longest diameter)×(shortest diameter). In the lymphoma model, EL-4 cells were injected into the abdominal area (10×10^6 cells/mouse in 200 μl of RPMI1640. tumor growth was followed using the electronic caliber.
(§1) The tumor model was established as above. The animals were treated every second day with anti-VAP-1 mAb (7-106+7-88, 100 μg each/mouse) or with a negative control mAb HB151 (200 μg/mouse, ip) (Merinen, M., H. Irjala, M. Salmi, I. Jaakkola, A. Hanninen, and S. Jalkanen. 2005. e. Am. J. Pathol. 166:793-800). The antibodies were produced in serum and BSA-free medium, concentrated, and dialyzed against PBS. Another group of mice were treated with the VAP-1 inhibitor SZE 5302 (50 mg/kg, ip, daily) or with the vehicle (saline) (Koskinen, K., P. J. Vainio, D. J. Smith, M. Pihlavisto, S. Yla-Herttuala, S. Jalkanen, and M. Salmi. 2004. Blood 103:3388-3395). The growth of the tumor was then followed using bioluminescence imaging or volume measurements as described above.

The subject of experiment [2] is CD31-positive vessels in melanoma tumors. Kind of experiment: CD31-positive vessels in melanoma tumors (immunohistochemistry, neoangiogenesis). As to conditions: melanoma tumors resected d10, treated vs control mice, FIG. 3. As for the experimental part:
as §1
At the end of the experiment, tumors were excised from the mice and processed for immunohistochemical staining. Anti-mouse CD31 mAb (MEC13.3, IHC formula, 1:300 dilution; Pharmingen) and a negative control mAb (9B5) were used for indirect immunoperoxidase stainings. The sections were counterstained with hematoxylin-eosin, and mounted in Depex. In certain cases, formalin-fixed, paraffin embedded sections were stained with HE. The CD31-positive vessels or vessels in HE-stained sections were enumerated by counting the number of vessels in the whole tumor area using a 400× magnification. […]

Experiment [3] deals with myeloid-derived suppressor cells (MDSC) in melanoma tumors. The experiment can be described thus: CD11b-positive myeloid-derived suppressor cells in melanoma tumors (microscopic counting). The settings on record: wt mice treated with inhibitor vs vehicle, FIG. 6. An excerpt: FIG. 6. VAP-1 selectively supports recruitment of pro-angiogenic myeloid-derived suppressor cells in melanoma tumors. CD11b-positive cells were quantified by microscopic counting in wt and VAP-1 deficient mice and in wt treated with vehicle or SZE5302 inhibitor. Data (mean±SEM) are from 9 mice per group, ** p<0.01.
At the end of the experiment, tumors were excised from the mice and processed for immunohistochemical staining. Anti-mouse CD31 mAb (MEC13.3, IHC formula, 1:300 dilution; Pharmingen) and a negative control mAb (9B5) were used for indirect immunoperoxidase stainings. The sections were counterstained with hematoxylin-eosin, and mounted in Depex. In certain cases, formalin-fixed, paraffin embedded sections were stained with HE. The CD31-positive vessels or vessels in HE-stained sections were enumerated by counting the number of vessels in the whole tumor area using a 400× magnification. Sections were also stained with CD11b and Gr-1 antibodies.

Experiment [4] has as its system EL-4 lymphoma cells. The experiment can be described thus: EL-4 lymphoma growth in mice (tumor volume). As to conditions: wt mice, s.c. EL-4 lymphoma, treated vs control, FIG. 5b. On the procedure:
FIG. 5. Defective migration of myeloid-derived suppressor cells (MDSC), angiogenesis and growth of lymphoma in VAP-1 deficient mice (a, b). EL-4 lymphoma cells were injected subcutaneously into (a) wt and VAP-1 deficient mice and (b) control and SZE5302 treated mice, and the growth of the lymphomas (volume) was measured kinetically. VAP-1 activity in control and SZE5302 treated mice was measured using enzyme assay (c) Immunohistochemical stainings of (d) VAP-1 and (e) CD31 expression in tumor vessels in EL-4 lymphoma grown in wt and VAP-1 −/− mice. Some positive vessels are pointed out by arrows. Lymphoma cells also express low levels of CD31. Bar 50 μm. The numbers of (f) CD31 positive vessels and (g) CD11b positive cells was determined using immunohistochemistry. […]
In the melanoma model, age- and sex-matched VAP-1 deficient and wt C57/B16 mice were used (Stolen, C. M., F. Marttila-Ichihara, K. Koskinen, G. G. Yegutkin, R. Turja, P. Bono, M. Skurnik, A. Hanninen, S. Jalkanen, and M. Salmi. 2005. Immunity 22:105-115). […] Immediately thereafter, a substrate for the luciferase (D-luciferin sodium salt, Synchem, Kassel, Germany; 150 mg/kg i.p.) was injected, and 10 min later the light generated was recorded using bioluminescence imaging (IVIS 50 workstation, Xenogen). The signal intensities were quantified as the photon counts using the Living Image software (Xenogen). […]

For `CN(N)[C@H]1Cc2ccccc2[C@@H]1O` [SZE5302], the “tumor volume (physical measurement)” value in experiment [1] (day 7, wt mice, B16 melanoma, 50 mg/kg ip daily) is recorded as “significant reduction”. Also, the melanoma size entry in experiment [1] (day 10, wt mice, B16 melanoma, 50 mg/kg ip daily) is “clearly smaller”. In experiment [1] (wt mice, s.c. B16 melanoma, 50 mg/kg ip daily vs vehicle, FIG. 2B), the tumor growth result is “significant decrease in tumor growth”. Also, the “number of CD31+ positive (new) vessels in the tumor” value in experiment [2] is on record as “significantly fewer”. Further, the “number of MDSC in the melanomas” value in experiment [3] is on record as “strongly reduced”. For the same compound, the “tumor growth (lymphoma volume)” value in experiment [4] is “strongly inhibited tumor growth”.
